From patent US6054591A, “Lymph-absorbable aryl substituted imidazole derivatives” (Shionogi & Co., Ltd., priority 1996, dated 2000)
Values after ≈ are worked out from the molar mass of the structure shown.

What follows are compounds tested on HIV (HTLV-IIIB strain) (assay: Infection inhibitory activity (anti-HIV activity, MTT assay in MT-4 cells)). Conditions: Human immunodeficiency virus 1, IIIB, MT4, 120 h.
Type: cell-based
Description: Infection inhibitory activity of the compound
The anti-HIV activity of the representative compounds prepared in the above examples was assayed by the following procedures.
Human T cell line MOLT-4 clone 8 persistently infected by HIV (HTLV-IIIB strain) was cultured in an RPMI-1640 medium supplemented with 10% fetal calf serum, the culture supernatant was filtered, the titer of virus was determined on the filtrate, and the culture supernatant was stored at -80° C. On the other hand, the test compound was diluted with the above culture medium to predetermined concentration range 1 μg/ml to 1 ng/ml and distributed in 50 μl aliquots into a 96-well microtiter plate. Then, a suspension of MT-4 cells was added in 100 μl aliquots (3.5×10^4 cells per well) and then 50 μl (60 pfu (plaque forming units)) per well of the above HIV-containing supernatant diluted with the above culture medium each was added.
The plate was incubated in a CO2 incubator at 37° C. for 5 days. Then, 30 μl/well of 3-(4,5-dimethylthiazol-2-yl)-2,5-[…] (MTT) and 5 mg/ml PBS was added and the incubation was further continued for 1 hour. The surviving cells reducing MTT yield precipitation of formazan. Therefore, 150 μl portions of the culture supernatant were removed from all wells and, instead, 150 μl of a solution (10% Triton X-100 and 0.4% (v/v) HCl added isopropanol) was added. The plate was shaken on a plate mixer to dissolve the formazan. The OD of formazan was measured with a microreader at 560 nm and 690 nm (reference wavelength) and the result was compared with that of control. The cytotoxic effect for the virus was expressed as EC50.
`CC(C)c1nc(COC(=O)NC(=O)Oc2ccc(-c3ccccc3)cc2)n(Cc2ccncc2)c1Sc1cc(Cl)cc(Cl)c1` [Compound 103, 5-(3,5-Dichlorophenylthio)-4-isopropyl-1-(4-pyridylmethyl)-1H-imidazol-2-ylmethyl 4-biphenyl iminodicaboxylate] showed an EC50 of 8 ng/mL (≈ 0.0124 µM).
In the case of `CC(C)c1nc(COC(=O)NC(=O)Oc2cccc3ccccc23)n(Cc2ccncc2)c1Sc1cc(Cl)cc(Cl)c1` [Compound 104, 5-(3,5-Dichlorophenylthio)-4-isopropyl-1-(4-pyridylmethyl)-1H-imidazol-2-ylmethyl 1-naphthyl iminodicaboxylate], the EC50 is reported as < 8 ng/mL.

Same assay, conditions: Human immunodeficiency virus 1, MT4, 120 h; MT-4 cells, HIV HTLV-IIIB, 5 days at 37° C., MTT; read-out: EC50
`CCCCN(CCCC)CNC(=O)OCc1nc(C(C)C)c(Sc2cc(Cl)cc(Cl)c2)n1Cc1ccncc1` [Compound 112, 5-(3,5-Dichlorophenylthio)-4-isopropyl-1-(4-pyridylmethyl)-1H-imidazol-2-ylmethyl di-n-butylaminomethylcarbamate] showed an EC50 of 3 ng/mL (≈ 0.00506 µM).
`Cc1nc(C(C)C)c(Sc2cc(Cl)cc(Cl)c2)n1COCCOCOC(=O)C(C)(C)C` [Compound 77, 2-[5-(3,5-Dichlorophenylthio)-4-isopropyl-2-methyl-imidazol-1-ylmethoxy]ethyl 2,2-dimethylpropionyloxymethyl ether] was tested, and the EC50 was 8 ng/mL (≈ 0.0163 µM).
`CCn1c(CO)nc(C(C)C)c1Sc1cc(Cl)cc(Cl)c1` [Compound 19, 2-hydroxymethyl-5-(3,5-dichlorophenylthio)-4-isopropyl-1-ethyl-1H-imidazole] was tested, and the EC50 was 4 ng/mL (≈ 0.0116 µM).
Work on `Cc1cc(C)cc(Sc2c(C(C)C)nc(C)n2COCCOC(=O)CCC(=O)O)c1` [Compound 68, Mono-{2-[5-(3,5-dimethylphenylthio)-4-isopropyl-2-methyl-imidazol-1-yl]methoxyethyl}succinate] yielded an EC50 of 8 ng/mL.
`CC(C)c1nc(COC(=O)NCN2CCOCC2)n(Cc2ccncc2)c1Sc1cc(Cl)cc(Cl)c1` [Compound 113, 5-(3,5-Dichlorophenylthio)-4-isopropyl-1-(4-pyridylmethyl)-1H-imidazol-2-ylmethyl morpholinomethylcarbamate] was tested, and the EC50 was 3 to 5 ng/mL (≈ 0.00545 to 0.00908 µM).
For `CCCCCCCC(=O)NC(=O)OCc1nc(C(C)C)c(Sc2cc(Cl)cc(Cl)c2)n1CC` [Compound 82, 5-(3,5-Dichlorophenylthio)-1-ethyl-4-isopropyl-1H-imidazol-2-ylmethyl octanoylcarbamate], the EC50 was 8 to 16 ng/mL (≈ 0.0155 to 0.0311 µM).
Work on `Cc1nc(C(C)C)c(Sc2cc(Cl)cc(Cl)c2)n1COCCOC1=CCCCCCC1` [Compound 11, 1-[2-(Cycloocten-1-yloxy)ethoxymethyl]-5-(3,5-dichlorophenylthio)-4-isopropyl-2-methyl-1H-imidazole] yielded an EC50 of 8 ng/mL (≈ 0.0165 µM).
With `CCn1c(CCO)nc(C(C)C)c1Sc1cc(Cl)cc(Cl)c1` [Compound 54] the EC50 was 2 ng/mL (≈ 0.00557 µM).
`CC(C)c1nc(COC(=O)NCN(Cc2ccccc2)Cc2ccccc2)n(Cc2ccncc2)c1Sc1cc(Cl)cc(Cl)c1` [Compound 114, 5-(3,5-Dichlorophenylthio)-4-isopropyl-1-(4-pyridylmethyl)-1H-imidazol-2-ylmethyl dibenzylaminomethylcarbamate] gave an EC50 of 3 to 5 ng/mL (≈ 0.00454 to 0.00757 µM).
Work on `Cc1nc(C(C)C)c(Sc2cc(Cl)cc(Cl)c2)n1COCCOC(=O)CCCCCCCCCCCCCCC(=O)O` [Compound 75, Mono-{2-[5-(3,5-dichlorophenylthio)-4-isopropyl-2-methyl-imidazol-1-ylmethoxy]ethyl} hexadecanedioate] yielded an EC50 of 8 ng/mL (≈ 0.0124 µM).
Compound `CC(C)c1nc(CO)n(C)c1Sc1cc(Cl)cc(Cl)c1` [Compound 14, 5-(3,5-dichlorophenylthio)-4-isopropyl-1-methyl-2-hydroxymethyl-1H-imidazole] has an EC50 of 16 ng/mL (≈ 0.0483 µM).
Compound `CCn1c(COC(=O)NC(C)=O)nc(C(C)C)c1Sc1cc(Cl)cc(Cl)c1` [Compound 80, 5-(3,5-Dichlorophenylthio)-1-ethyl-4-isopropyl-1H-imidazol-2-ylmethyl acetylcarbamate] has an EC50 of 1 ng/mL (≈ 0.00232 µM).
For `CC(C)c1nc(COC(N)=O)n(Cc2ccncc2)c1Sc1cc(Cl)cc(Cl)c1` [Compound 111, 5-(3,5-dichlorophenylthio)-4-isopropyl-1-(4-pyridylmethyl)-1H-imidazol-2-ylmethyl carbamate], the EC50 was 0.9 ng/mL (≈ 0.00199 µM).
For `CCCCCCCC(=O)OCc1nc(C(C)C)c(Sc2cc(Cl)cc(Cl)c2)n1CC` [Compound 108, 5-(3,5-Dichlorophenylthio)-1-ethyl-4-isopropyl-1H-imidazol-2-ylmethyl octanoate], the EC50 was 8 ng/mL (≈ 0.017 µM).
`Cc1cc(C)cc(Sc2c(C(C)C)nc(C)n2COCCO)c1` [Compound 1, 5-(3,5-dimethylphenylthio)-4-isopropyl-1-(2-hydroxyethoxymethyl)-2-methyl-1H-imidazole] gave an EC50 of 8 ng/mL (≈ 0.0239 µM).
`Cc1nc(C(C)C)c(Sc2cc(Cl)cc(Cl)c2)n1COCCOC(=O)CCC(=O)O` [Compound 76, Mono-{2-[5-(3,5-dichlorophenylthio)-4-isopropyl-2-methyl-imidazol-1-ylmethoxy]ethyl succinate] gave an EC50 of 8 ng/mL.
For `Cc1nc(C(C)C)c(Sc2cc(Cl)cc(Cl)c2)n1COCCO` [Compound 8, 5-(3,5-Dichlorophenylthio)-4-isopropyl-1-[2-hydroxyethoxymethyl]-2-methyl-1H-imidazole], the EC50 was 5 ng/mL (≈ 0.0133 µM).
Work on `CCn1c(CCOC2=CCCCCCC2)nc(C(C)C)c1Sc1cc(Cl)cc(Cl)c1` [Compound 59] yielded an EC50 of 2.5 to 5 ng/mL (≈ 0.00535 to 0.0107 µM).
Compound `CCCCCCCCCC(=O)OCc1nc(C(C)C)c(Sc2cc(Cl)cc(Cl)c2)n1CC` [Compound 109, 5-(3,5-Dichlorophenylthio)-1-ethyl-4-isopropyl-1H-imidazol-2-ylmethyl decanoate] has an EC50 of 8 to 16 ng/mL (≈ 0.016 to 0.032 µM).
In the case of `CCn1c(COC(=O)NC(=O)c2cc(Cl)cc(Cl)c2)nc(C(C)C)c1Sc1cc(Cl)cc(Cl)c1` [Compound 87, 5-(3,5-Dichlorophenylthio)-1-ethyl-4-isopropyl-1H-imidazol-2-ylmethyl 3,5-dichlorobenzoylcarbamate], the EC50 is reported as 8 ng/mL (≈ 0.0143 µM).
In the case of `CCCCCCCC(=O)NC(=O)OCc1nc(C(C)C)c(Sc2cc(Cl)cc(Cl)c2)n1Cc1ccncc1` [Compound 91, 5-(3,5-Dichlorophenylthio)-4-isopropyl-1-(4-pyridylmethyl)-1H-imidazol-2-ylmethyl octanoylcarbamate], the EC50 is reported as 8 to 16 ng/mL (≈ 0.0139 to 0.0277 µM).
For `CC(=O)NC(=O)OCc1nc(C(C)C)c(Sc2cc(Cl)cc(Cl)c2)n1Cc1ccncc1` [Compound 90, 5-(3,5-Dichlorophenylthio)-4-isopropyl-1-(4-pyridylmethyl)-1H-imidazol-2-ylmethyl acetylcarbamate], the EC50 was < 8 ng/mL.
With `CCCCCCCCCC(=O)NC(=O)OCc1nc(C(C)C)c(Sc2cc(Cl)cc(Cl)c2)n1Cc1ccncc1` [Compound 92, 5-(3,5-Dichlorophenylthio)-4-isopropyl-1-(4-pyridylmethyl)-1H-imidazol-2-ylmethyl decanoylcarbamate] the EC50 was < 8 ng/mL.
`CCn1c(COC(=O)NC(=O)c2ccc(Cl)cc2)nc(C(C)C)c1Sc1cc(Cl)cc(Cl)c1` [Compound 86, 5-(3,5-Dichlorophenylthio)-1-ethyl-4-isopropyl-1H-imidazol-2-ylmethyl 4-chlorobenzoylcarbamate] gave an EC50 of 8 ng/mL (≈ 0.0152 µM).
